From the kinase profiling compilation of Christmann-Franck et al. (2016)
Values joined by “and” are separate entries in the source; they are usually repeats but may differ in a detail not shown here. Equal entries are not always repeated.

Key:
Experiment in all cases: radiometric filter-binding kinase assay, Kinase HotSpot
Settings in all cases: compound 0.5 µM; ATP 10 µM
PRKG1 (human) = PRKG1 (human) (UniProt Q13976)
MAPK13 (human) = MAPK13 (human) (UniProt O15264)
EPHA3 (human) = EPHA3 (human) (UniProt P29320)
CDK4 CCND3 (human) = CDK4 CCND3 (human) (UniProt P30281+P11802)
PTK2B (human) = PTK2B (human) (UniProt Q14289)
RPS6KA3 KD1 KD2 (human) = RPS6KA3 KD1 KD2 (human) (UniProt P51812)
CHUK (human) = CHUK (human) (UniProt O15111)
SRPK2 (human) = SRPK2 (human) (UniProt P78362)
EPHA2 (human) = EPHA2 (human) (UniProt P29317)
NEK7 (human) = NEK7 (human) (UniProt Q8TDX7)
MERTK (human) = MERTK (human) (UniProt Q12866)
EPHA1 (human) = EPHA1 (human) (UniProt P21709)
CSNK1G2 (human) = CSNK1G2 (human) (UniProt P78368)
NTRK2 (human) = NTRK2 (human) (UniProt Q16620)
EPHB2 (human) = EPHB2 (human) (UniProt P29323)
MAP3K9 (human) = MAP3K9 (human) (UniProt P80192)
GSK3A (human) = GSK3A (human) (UniProt P49840)
IGF1R (human) = IGF1R (human) (UniProt P08069)
EPHA8 (human) = EPHA8 (human) (UniProt P29322)
MARK1 (human) = MARK1 (human) (UniProt Q9P0L2)
NUAK2 (human) = NUAK2 (human) (UniProt Q9H093)
CAMK2B (human) = CAMK2B (human) (UniProt Q13554)
TBK1 (human) = TBK1 (human) (UniProt Q9UHD2)
DYRK1A (human) = DYRK1A (human) (UniProt Q13627)
BTK (human) = BTK (human) (UniProt Q06187)
RET (human) = RET (human) (UniProt P07949)
DAPK1 (human) = DAPK1 (human) (UniProt P53355)
NUAK1 (human) = NUAK1 (human) (UniProt O60285)
CSNK2A2 (human) = CSNK2A2 (human) (UniProt P19784)
PRKD2 (human) = PRKD2 (human) (UniProt Q9BZL6)
GSG2 (human) = GSG2 (human) (UniProt Q8TF76)
ABL2 (human) = ABL2 (human) (UniProt P42684)
MAP3K2 (human) = MAP3K2 (human) (UniProt Q9Y2U5)
FES (human) = FES (human) (UniProt P07332)
MAP2K2 (human) = MAP2K2 (human) (UniProt P36507)
CAMK1D (human) = CAMK1D (human) (UniProt Q8IU85)
[1] = target: JAK1 JH1 catalytic (human) (UniProt P23458)
STK25 (human) = STK25 (human) (UniProt O00506)
HIPK4 (human) = HIPK4 (human) (UniProt Q8NE63)
NTRK3 (human) = NTRK3 (human) (UniProt Q16288)
DDR2 (human) = DDR2 (human) (UniProt Q16832)
TSSK1B (human) = TSSK1B (human) (UniProt Q9BXA7)

Chain of PTK2B (human) (Q14289 whole entry, looked up): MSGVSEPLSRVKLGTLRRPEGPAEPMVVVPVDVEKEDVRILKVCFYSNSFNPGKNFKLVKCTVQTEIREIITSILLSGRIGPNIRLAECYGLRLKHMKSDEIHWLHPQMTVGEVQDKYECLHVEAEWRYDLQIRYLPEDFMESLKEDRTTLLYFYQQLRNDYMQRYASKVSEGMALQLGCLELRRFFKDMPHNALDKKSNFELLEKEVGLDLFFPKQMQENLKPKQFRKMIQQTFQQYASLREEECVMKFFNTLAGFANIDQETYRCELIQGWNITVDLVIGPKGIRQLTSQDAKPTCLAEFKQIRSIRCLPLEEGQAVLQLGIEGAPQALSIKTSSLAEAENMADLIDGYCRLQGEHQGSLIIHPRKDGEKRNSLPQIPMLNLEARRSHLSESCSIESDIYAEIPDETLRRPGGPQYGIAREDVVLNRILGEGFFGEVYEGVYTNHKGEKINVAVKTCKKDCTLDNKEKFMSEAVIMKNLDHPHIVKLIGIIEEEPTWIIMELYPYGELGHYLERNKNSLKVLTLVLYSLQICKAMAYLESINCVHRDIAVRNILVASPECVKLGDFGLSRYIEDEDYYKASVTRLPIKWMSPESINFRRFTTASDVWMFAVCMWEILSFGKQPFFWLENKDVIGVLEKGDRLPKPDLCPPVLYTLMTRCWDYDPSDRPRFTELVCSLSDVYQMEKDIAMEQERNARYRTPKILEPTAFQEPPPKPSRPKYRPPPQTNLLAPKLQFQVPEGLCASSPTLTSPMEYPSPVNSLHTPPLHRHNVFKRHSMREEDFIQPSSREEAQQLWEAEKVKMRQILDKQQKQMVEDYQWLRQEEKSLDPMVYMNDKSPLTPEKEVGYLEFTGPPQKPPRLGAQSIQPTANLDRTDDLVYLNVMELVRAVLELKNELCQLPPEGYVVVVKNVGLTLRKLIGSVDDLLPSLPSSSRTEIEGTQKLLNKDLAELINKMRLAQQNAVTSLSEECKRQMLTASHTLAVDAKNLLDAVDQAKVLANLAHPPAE
Chain of NUAK1 (human) (O60285 whole entry, looked up): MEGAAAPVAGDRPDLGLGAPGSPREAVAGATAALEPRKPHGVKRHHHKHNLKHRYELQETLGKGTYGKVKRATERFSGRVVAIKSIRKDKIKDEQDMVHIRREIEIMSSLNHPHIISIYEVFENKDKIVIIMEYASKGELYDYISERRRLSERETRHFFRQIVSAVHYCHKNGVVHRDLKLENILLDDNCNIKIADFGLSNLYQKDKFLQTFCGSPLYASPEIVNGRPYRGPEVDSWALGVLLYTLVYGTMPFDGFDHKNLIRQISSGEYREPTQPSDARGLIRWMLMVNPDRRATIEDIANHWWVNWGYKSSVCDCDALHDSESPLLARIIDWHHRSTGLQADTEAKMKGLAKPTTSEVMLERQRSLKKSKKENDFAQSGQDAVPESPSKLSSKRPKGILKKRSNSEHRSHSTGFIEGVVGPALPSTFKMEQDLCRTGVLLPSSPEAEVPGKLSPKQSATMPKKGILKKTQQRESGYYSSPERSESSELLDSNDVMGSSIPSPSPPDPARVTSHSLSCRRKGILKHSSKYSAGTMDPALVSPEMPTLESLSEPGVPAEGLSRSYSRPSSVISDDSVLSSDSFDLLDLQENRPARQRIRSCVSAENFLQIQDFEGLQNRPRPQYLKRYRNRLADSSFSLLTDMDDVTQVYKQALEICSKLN
Chain of FES (human) (P07332 whole entry, looked up): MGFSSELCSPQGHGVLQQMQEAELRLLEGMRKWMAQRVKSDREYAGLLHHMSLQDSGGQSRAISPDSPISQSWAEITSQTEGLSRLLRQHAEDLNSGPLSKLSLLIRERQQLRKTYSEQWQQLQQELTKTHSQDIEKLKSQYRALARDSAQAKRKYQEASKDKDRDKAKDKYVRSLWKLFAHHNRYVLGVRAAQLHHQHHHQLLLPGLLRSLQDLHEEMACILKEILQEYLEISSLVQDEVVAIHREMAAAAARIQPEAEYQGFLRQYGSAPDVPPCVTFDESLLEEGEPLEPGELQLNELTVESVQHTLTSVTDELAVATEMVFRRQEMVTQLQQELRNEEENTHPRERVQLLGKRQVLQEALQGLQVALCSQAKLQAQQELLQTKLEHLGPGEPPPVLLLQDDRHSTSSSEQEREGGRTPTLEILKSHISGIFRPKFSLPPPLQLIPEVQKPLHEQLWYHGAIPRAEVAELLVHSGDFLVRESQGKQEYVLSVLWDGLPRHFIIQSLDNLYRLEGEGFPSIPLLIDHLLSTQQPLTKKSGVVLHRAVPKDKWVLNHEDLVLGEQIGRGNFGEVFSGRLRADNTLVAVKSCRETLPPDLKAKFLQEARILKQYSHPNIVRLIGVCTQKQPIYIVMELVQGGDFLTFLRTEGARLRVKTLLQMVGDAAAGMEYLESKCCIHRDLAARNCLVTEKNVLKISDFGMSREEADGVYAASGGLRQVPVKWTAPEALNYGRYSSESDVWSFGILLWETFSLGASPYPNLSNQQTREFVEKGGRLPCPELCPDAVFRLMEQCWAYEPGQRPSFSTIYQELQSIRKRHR
Chain of CAMK1D (human) (Q8IU85 whole entry, looked up): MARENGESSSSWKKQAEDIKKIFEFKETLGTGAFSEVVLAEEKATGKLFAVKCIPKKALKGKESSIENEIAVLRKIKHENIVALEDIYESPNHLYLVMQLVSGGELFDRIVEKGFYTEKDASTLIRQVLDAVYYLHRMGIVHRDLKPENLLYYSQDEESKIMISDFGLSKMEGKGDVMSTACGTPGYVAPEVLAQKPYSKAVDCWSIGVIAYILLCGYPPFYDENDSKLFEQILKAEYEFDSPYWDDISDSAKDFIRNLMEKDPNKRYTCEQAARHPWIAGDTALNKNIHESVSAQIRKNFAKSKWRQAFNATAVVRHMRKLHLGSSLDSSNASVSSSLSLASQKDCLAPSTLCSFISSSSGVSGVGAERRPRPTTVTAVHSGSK
Chain of MAP3K9 (human) (P80192 whole entry, looked up): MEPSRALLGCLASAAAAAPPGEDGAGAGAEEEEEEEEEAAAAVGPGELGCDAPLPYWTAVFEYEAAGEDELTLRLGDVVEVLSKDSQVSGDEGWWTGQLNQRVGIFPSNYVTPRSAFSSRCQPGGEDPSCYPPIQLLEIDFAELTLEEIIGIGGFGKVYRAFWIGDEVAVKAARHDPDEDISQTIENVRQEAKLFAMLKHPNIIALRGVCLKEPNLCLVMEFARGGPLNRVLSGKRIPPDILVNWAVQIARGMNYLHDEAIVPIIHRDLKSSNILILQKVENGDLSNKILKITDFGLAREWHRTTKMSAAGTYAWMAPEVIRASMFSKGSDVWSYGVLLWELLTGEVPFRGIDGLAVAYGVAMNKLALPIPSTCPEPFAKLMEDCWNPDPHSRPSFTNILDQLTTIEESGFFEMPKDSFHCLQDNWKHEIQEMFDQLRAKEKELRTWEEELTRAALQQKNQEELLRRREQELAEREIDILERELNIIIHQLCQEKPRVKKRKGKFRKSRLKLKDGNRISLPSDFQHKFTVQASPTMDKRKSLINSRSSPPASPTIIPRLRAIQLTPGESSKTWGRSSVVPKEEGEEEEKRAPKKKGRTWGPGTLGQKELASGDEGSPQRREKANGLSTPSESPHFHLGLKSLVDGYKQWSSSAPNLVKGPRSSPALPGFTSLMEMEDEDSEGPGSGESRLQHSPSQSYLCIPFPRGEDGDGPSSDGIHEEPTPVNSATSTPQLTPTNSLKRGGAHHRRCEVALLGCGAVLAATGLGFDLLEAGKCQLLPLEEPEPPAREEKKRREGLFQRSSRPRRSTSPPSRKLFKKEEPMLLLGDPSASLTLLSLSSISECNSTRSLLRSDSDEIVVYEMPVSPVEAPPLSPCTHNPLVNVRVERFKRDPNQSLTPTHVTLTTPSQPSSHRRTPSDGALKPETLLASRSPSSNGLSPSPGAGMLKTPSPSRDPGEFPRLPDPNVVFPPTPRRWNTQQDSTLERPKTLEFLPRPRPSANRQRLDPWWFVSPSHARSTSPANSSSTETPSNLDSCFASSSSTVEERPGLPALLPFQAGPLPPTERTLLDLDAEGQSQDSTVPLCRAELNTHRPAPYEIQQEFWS
Chain of CAMK2B (human) (Q13554 whole entry, looked up): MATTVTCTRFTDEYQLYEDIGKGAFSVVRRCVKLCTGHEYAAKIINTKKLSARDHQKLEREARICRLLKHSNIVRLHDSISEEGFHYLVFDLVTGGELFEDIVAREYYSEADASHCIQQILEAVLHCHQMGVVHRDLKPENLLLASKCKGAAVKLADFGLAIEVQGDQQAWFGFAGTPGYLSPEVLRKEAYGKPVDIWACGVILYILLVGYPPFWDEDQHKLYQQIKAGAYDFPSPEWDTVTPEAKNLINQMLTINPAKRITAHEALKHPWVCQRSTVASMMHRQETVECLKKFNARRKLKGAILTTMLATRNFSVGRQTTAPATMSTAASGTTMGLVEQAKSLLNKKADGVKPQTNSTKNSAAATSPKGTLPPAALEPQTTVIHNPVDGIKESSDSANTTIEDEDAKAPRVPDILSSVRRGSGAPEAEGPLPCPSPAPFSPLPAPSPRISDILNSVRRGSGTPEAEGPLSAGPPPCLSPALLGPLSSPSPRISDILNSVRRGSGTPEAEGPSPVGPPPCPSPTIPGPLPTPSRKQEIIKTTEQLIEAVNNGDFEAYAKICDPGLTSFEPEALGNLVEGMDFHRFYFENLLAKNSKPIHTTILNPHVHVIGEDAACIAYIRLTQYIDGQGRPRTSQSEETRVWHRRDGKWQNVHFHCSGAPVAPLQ
Chain of MAPK13 (human) (O15264 whole entry, looked up): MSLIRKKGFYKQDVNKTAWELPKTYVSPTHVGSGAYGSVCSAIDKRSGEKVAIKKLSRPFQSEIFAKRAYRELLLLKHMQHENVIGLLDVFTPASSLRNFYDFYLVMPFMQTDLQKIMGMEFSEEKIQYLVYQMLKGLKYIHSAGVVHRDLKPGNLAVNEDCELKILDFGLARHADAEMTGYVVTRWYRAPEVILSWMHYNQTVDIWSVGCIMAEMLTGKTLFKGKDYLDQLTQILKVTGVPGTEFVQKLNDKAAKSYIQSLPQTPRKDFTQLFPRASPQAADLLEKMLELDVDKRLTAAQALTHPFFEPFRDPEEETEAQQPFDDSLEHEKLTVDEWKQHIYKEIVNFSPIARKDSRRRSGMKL

## N#CCCc1ccc2c(c1)-c1[nH]c3ccc([N+](=O)[O-])cc3c1CC(=O)N2
PRKG1 (human)
  residual activity: 88.4% and 99.3%
MAPK13 (human)
  residual activity: 98.2%
EPHA3 (human)
  residual activity: 93.9%
CDK4 CCND3 (human)
  residual activity: 25.9%
PTK2B (human)
  residual activity: 62.9%
RPS6KA3 KD1 KD2 (human)
  residual activity: 28.6%
CHUK (human)
  residual activity: 105%
SRPK2 (human)
  residual activity: 109%
EPHA2 (human)
  residual activity: 93.6%
NEK7 (human)
  residual activity: 87.4%
MERTK (human)
  residual activity: 77.5%
EPHA1 (human)
  residual activity: 91.7%
CSNK1G2 (human)
  residual activity: 84.8%
NTRK2 (human)
  residual activity: 86.4%
EPHB2 (human)
  residual activity: 98.5%
MAP3K9 (human)
  residual activity: 18.2%
GSK3A (human)
  residual activity: 0.804%
IGF1R (human)
  residual activity: 92.2%
EPHA8 (human)
  residual activity: 105%
MARK1 (human)
  residual activity: 67.4%
NUAK2 (human)
  residual activity: 67.6%
CAMK2B (human)
  residual activity: 99.3%
TBK1 (human)
  residual activity: 83.7%
DYRK1A (human)
  residual activity: 85.9%
BTK (human)
  residual activity: 94.6%
RET (human)
  residual activity: 80.8%
DAPK1 (human)
  residual activity: 96.5%
NUAK1 (human)
  residual activity: 14.1%
CSNK2A2 (human)
  residual activity: 92.9%
PRKD2 (human)
  residual activity: 94.2%
GSG2 (human)
  residual activity: 110%
ABL2 (human)
  residual activity: 49.8%
MAP3K2 (human)
  residual activity: 61.5%
FES (human)
  residual activity: 37.9%
MAP2K2 (human)
  residual activity: 90.3%
CAMK1D (human)
  residual activity: 91.8%
[1]
  residual activity: 91.9%
STK25 (human)
  residual activity: 91.1%
HIPK4 (human)
  residual activity: 113%
NTRK3 (human)
  residual activity: 61.2%
DDR2 (human)
  residual activity: 105%
TSSK1B (human)
  residual activity: 59.2%

## O=c1c2ccccc2[nH]c(=S)n1CCN1CCC(=C(c2ccc(F)cc2)c2ccc(F)cc2)CC1
PRKG1 (human)
  residual activity: 102% and 95.7%
MAPK13 (human)
  residual activity: 106%
EPHA3 (human)
  residual activity: 101%
CDK4 CCND3 (human)
  residual activity: 99%
PTK2B (human)
  residual activity: 98.5%
RPS6KA3 KD1 KD2 (human)
  residual activity: 99.8%
CHUK (human)
  residual activity: 95%
SRPK2 (human)
  residual activity: 94.1%
EPHA2 (human)
  residual activity: 105%
NEK7 (human)
  residual activity: 100%
MERTK (human)
  residual activity: 97%
EPHA1 (human)
  residual activity: 107%
CSNK1G2 (human)
  residual activity: 98.6%
NTRK2 (human)
  residual activity: 106%
EPHB2 (human)
  residual activity: 92.1%
MAP3K9 (human)
  residual activity: 111%
GSK3A (human)
  residual activity: 104%
IGF1R (human)
  residual activity: 105%
EPHA8 (human)
  residual activity: 102%
MARK1 (human)
  residual activity: 99.7%
NUAK2 (human)
  residual activity: 106%
CAMK2B (human)
  residual activity: 102%
TBK1 (human)
  residual activity: 104%
DYRK1A (human)
  residual activity: 99.9%
BTK (human)
  residual activity: 105%
RET (human)
  residual activity: 106%
DAPK1 (human)
  residual activity: 93.8%
NUAK1 (human)
  residual activity: 102%
CSNK2A2 (human)
  residual activity: 97.7%
PRKD2 (human)
  residual activity: 98.9%
GSG2 (human)
  residual activity: 95.4%
ABL2 (human)
  residual activity: 103%
MAP3K2 (human)
  residual activity: 99.6%
FES (human)
  residual activity: 94.9%
MAP2K2 (human)
  residual activity: 101%
CAMK1D (human)
  residual activity: 96.8%
[1]
  residual activity: 105%
STK25 (human)
  residual activity: 96.6%
HIPK4 (human)
  residual activity: 98.4%
NTRK3 (human)
  residual activity: 98.9%
DDR2 (human)
  residual activity: 97.6%
TSSK1B (human)
  residual activity: 106%

## CCc1nc(-c2ccc(OC)cc2)[nH]c1-c1ccncc1
PRKG1 (human)
  residual activity: 81% and 91.2%
MAPK13 (human)
  residual activity: 112%
EPHA3 (human)
  residual activity: 100%
CDK4 CCND3 (human)
  residual activity: 105%
PTK2B (human)
  residual activity: 94.6%
RPS6KA3 KD1 KD2 (human)
  residual activity: 98.7%
CHUK (human)
  residual activity: 104%
SRPK2 (human)
  residual activity: 101%
EPHA2 (human)
  residual activity: 102%
NEK7 (human)
  residual activity: 99.8%
MERTK (human)
  residual activity: 92.1%
EPHA1 (human)
  residual activity: 116%
CSNK1G2 (human)
  residual activity: 97.7%
NTRK2 (human)
  residual activity: 105%
EPHB2 (human)
  residual activity: 111%
MAP3K9 (human)
  residual activity: 88.1%
GSK3A (human)
  residual activity: 99.1%
IGF1R (human)
  residual activity: 99.5%
EPHA8 (human)
  residual activity: 93.5%
MARK1 (human)
  residual activity: 99.2%
NUAK2 (human)
  residual activity: 129%
CAMK2B (human)
  residual activity: 97.1%
TBK1 (human)
  residual activity: 99.7%
DYRK1A (human)
  residual activity: 97.7%
BTK (human)
  residual activity: 106%
RET (human)
  residual activity: 99.2%
DAPK1 (human)
  residual activity: 97.4%
NUAK1 (human)
  residual activity: 92.8%
CSNK2A2 (human)
  residual activity: 95.3%
PRKD2 (human)
  residual activity: 102%
GSG2 (human)
  residual activity: 55.9%
ABL2 (human)
  residual activity: 98.3%
MAP3K2 (human)
  residual activity: 98.2%
FES (human)
  residual activity: 100%
MAP2K2 (human)
  residual activity: 105%
CAMK1D (human)
  residual activity: 104%
[1]
  residual activity: 110%
STK25 (human)
  residual activity: 116%
HIPK4 (human)
  residual activity: 90%
NTRK3 (human)
  residual activity: 103%
DDR2 (human)
  residual activity: 96.1%
TSSK1B (human)
  residual activity: 106%

## O=c1cc(N2CCOCC2)oc2c(-c3ccccc3)cccc12
PRKG1 (human)
  residual activity: 104% and 105%
MAPK13 (human)
  residual activity: 93.3%
EPHA3 (human)
  residual activity: 98.7%
CDK4 CCND3 (human)
  residual activity: 96.2%
PTK2B (human)
  residual activity: 107%
RPS6KA3 KD1 KD2 (human)
  residual activity: 98.1%
CHUK (human)
  residual activity: 104%
SRPK2 (human)
  residual activity: 98.2%
EPHA2 (human)
  residual activity: 104%
NEK7 (human)
  residual activity: 92.1%
MERTK (human)
  residual activity: 95.2%
EPHA1 (human)
  residual activity: 101%
CSNK1G2 (human)
  residual activity: 94.4%
NTRK2 (human)
  residual activity: 112%
EPHB2 (human)
  residual activity: 99.8%
MAP3K9 (human)
  residual activity: 108%
GSK3A (human)
  residual activity: 93.5%
IGF1R (human)
  residual activity: 102%
EPHA8 (human)
  residual activity: 103%
MARK1 (human)
  residual activity: 100%
NUAK2 (human)
  residual activity: 95.1%
CAMK2B (human)
  residual activity: 110%
TBK1 (human)
  residual activity: 94.1%
DYRK1A (human)
  residual activity: 97.3%
BTK (human)
  residual activity: 94.5%
RET (human)
  residual activity: 99.2%
DAPK1 (human)
  residual activity: 90.1%
NUAK1 (human)
  residual activity: 92.5%
CSNK2A2 (human)
  residual activity: 93.9%
PRKD2 (human)
  residual activity: 93.8%
GSG2 (human)
  residual activity: 93.4%
ABL2 (human)
  residual activity: 98.1%
MAP3K2 (human)
  residual activity: 101%
FES (human)
  residual activity: 96.6%
MAP2K2 (human)
  residual activity: 96.8%
CAMK1D (human)
  residual activity: 47.9%
[1]
  residual activity: 108%
STK25 (human)
  residual activity: 116%
HIPK4 (human)
  residual activity: 102%
NTRK3 (human)
  residual activity: 95.9%
DDR2 (human)
  residual activity: 91.3%
TSSK1B (human)
  residual activity: 101%
